Measured values taken from patent US5015631A, “Repairing agent for cells and tissues” (MECT Corporation, priority 1987, dated 1991).

System: mice
Test: Simple acute toxicity test by intravenous injection in mice
Type: in vivo, Male ddy mice
Conditions: for Final death rate / Number of death with the elapse of time: 3 mice
Description: Simple acute toxicity test:
Simple acute toxicity tests of the materials were conducted by intraveous injections for the mice as follows:
Lithium, potassium, barium and magnesium N-acetylneuraminates (products of MECT Corporation) were used.
Weight of the animal in the initial stage of the test: 17.7 to 21.1 g
Number of mice for each level: 3
(3) Room temperature: 23±1° C., humidity: 55±7%
(4) Route of administration: intravenous injection
The material was dissolved in the physiological saline. The concentration of the dose solution was adjusted so that 0.2 ml of the dose solution was administered per 20 g of the body weight of the mice. The solution was given to a tail of each mouse by the intravenous injection. The dose was 500, 1000 or 2000 mg/kg.
The general symptoms and death were observed from immediately after the administration to seven days after the administration.

| SMILES | Final death rate (500 mg/kg i.v.) | Number of death with the elapse of time (500 mg/kg i.v., 1 hr) | Number of death with the elapse of time (500 mg/kg i.v., 3 hrs) | Number of death with the elapse of time (500 mg/kg i.v., 6 hrs) | Number of death with the elapse of time (500 mg/kg i.v., 24 hrs) | Number of death with the elapse of time (500 mg/kg i.v., 2 days) | Number of death with the elapse of time (500 mg/kg i.v., 3 days) | Number of death with the elapse of time (500 mg/kg i.v., 4 days) | Number of death with the elapse of time (500 mg/kg i.v., 5 days) | Number of death with the elapse of time (500 mg/kg i.v., 6 days) | Number of death with the elapse of time (500 mg/kg i.v., 7 days) | Final death rate (1000 mg/kg i.v.) | Number of death with the elapse of time (1000 mg/kg i.v., 1 hr) | Number of death with the elapse of time (1000 mg/kg i.v., 3 hrs) | Number of death with the elapse of time (1000 mg/kg i.v., 6 hrs) | Number of death with the elapse of time (1000 mg/kg i.v., 24 hrs) | Number of death with the elapse of time (1000 mg/kg i.v., 2 days) | Number of death with the elapse of time (1000 mg/kg i.v., 3 days) | Number of death with the elapse of time (1000 mg/kg i.v., 4 days) | Number of death with the elapse of time (1000 mg/kg i.v., 5 days) | other results |
| --- | --- | --- | --- | --- | --- | --- | --- | --- | --- | --- | --- | --- | --- | --- | --- | --- | --- | --- | --- | --- | --- |
| CC(=O)N[C@H]1[C@H]([C@H](O)[C@H](O)CO)OC(O)(C(=O)[O-])C[C@@H]1O.[Li+] (stereo partly drawn) [Lithium N-acetylneuraminate] | 0/3 | 0 | 0 | 0 | 0 | 0 | 0 | 0 | 0 | 0 | 0 | 0/3 | 0 | 0 | 0 | 0 | 0 | 0 | 0 | 0 | Number of death with the elapse of time (1000 mg/kg i.v., 6 days): 0; Number of death with the elapse of time (1000 mg/kg i.v., 7 days): 0; Final death rate (2000 mg/kg i.v.): 0/3; Number of death with the elapse of time (2000 mg/kg i.v., 1 hr): 0; Number of death with the elapse of time (2000 mg/kg i.v., 3 hrs): 0; Number of death with the elapse of time (2000 mg/kg i.v., 6 hrs): 0; Number of death with the elapse of time (2000 mg/kg i.v., 24 hrs): 0; Number of death with the elapse of time (2000 mg/kg i.v., 2 days): 0; Number of death with the elapse of time (2000 mg/kg i.v., 3 days): 0; Number of death with the elapse of time (2000 mg/kg i.v., 4 days): 0; Number of death with the elapse of time (2000 mg/kg i.v., 5 days): 0; Number of death with the elapse of time (2000 mg/kg i.v., 6 days): 0; Number of death with the elapse of time (2000 mg/kg i.v., 7 days): 0 |
| CC(=O)N[C@H]1[C@H]([C@H](O)[C@H](O)CO)OC(O)(C(=O)O)C[C@@H]1O (stereo partly drawn) [Magnesium N-acetylneuraminate] | 0/3 | 0 | 0 | 0 | 0 | 0 | 0 | 0 | 0 | 0 | 0 |  |  |  |  |  |  |  |  |  |  |
| CC(=O)N[C@H]1[C@H]([C@H](O)[C@H](O)CO)OC(O)(C(=O)[O-])C[C@@H]1O.[K+] (stereo partly drawn) [Potassium N-acetylneuraminate] | 0/3 | 0 | 0 | 0 | 0 | 0 | 0 | 0 | 0 | 0 | 0 | 3/3 | 3 | 0 | 0 | 0 | 0 | 0 | 0 | 0 | Number of death with the elapse of time (1000 mg/kg i.v., 6 days): 0; Number of death with the elapse of time (1000 mg/kg i.v., 7 days): 0; Death (1000 mg/kg or 2000 mg/kg i.v.): all of the three mice died; Final death rate (2000 mg/kg i.v.): 3/3; Number of death with the elapse of time (2000 mg/kg i.v., 1 hr): 3; Number of death with the elapse of time (2000 mg/kg i.v., 3 hrs): 0; Number of death with the elapse of time (2000 mg/kg i.v., 6 hrs): 0; Number of death with the elapse of time (2000 mg/kg i.v., 24 hrs): 0; Number of death with the elapse of time (2000 mg/kg i.v., 2 days): 0; Number of death with the elapse of time (2000 mg/kg i.v., 3 days): 0; Number of death with the elapse of time (2000 mg/kg i.v., 4 days): 0; Number of death with the elapse of time (2000 mg/kg i.v., 5 days): 0; Number of death with the elapse of time (2000 mg/kg i.v., 6 days): 0; Number of death with the elapse of time (2000 mg/kg i.v., 7 days): 0 |
